Source: patent publication US6894185B2, “Substituted chiral allosteric hemoglobin modifiers” (Allós Therapeutics, Inc., priority 1999, dated 2005)

Target: T1, hemoglobin (Homo sapiens, UniProt P68871+P69905)
T1 construct: The whole blood samples were collected in heparinized tubes from healthy volunteers; from tissue; host or cells: human whole blood (heparinized) from healthy volunteers
Assay: In vitro whole blood studies (multi-point tonometry and blood gas analysis)
Assay type: cell-based
Description: Structure-allosteric activity relationships were determined from the synthetic chiral effectors comparing the shift in the oxygen binding curve of Hb solutions using a Hemox-Analyzer. In vitro biological activity testing in the presence of plasma proteins was also performed on selected enantiomers and racemates (multi-point tonometry and blood gas analysis) to screen for candidates with potential clinical use. SAR studies compared the degree in shift in P50 values, i.e., the partial pressure of molecular oxygen necessary to half-saturate hemoglobin. An effector that decreases Hb oxygen affinity increases the P50 value relative to the control. Thus, the activity or potency of each analog could be expressed by the ratio P50 (effector)/P50(control). Tables and II and III summarize the p50 values obtained using human whole blood, while Tables IV and V summarize the P50 and the Hill coefficient values (n50) at half-saturation obtained using Hemox-analyzer. The slope of the log of the oxygen binding curves is known as the Hill coefficient. The Hill coefficient measures the degree of cooperativity in binding for an allosteric protein, the normal range for human blood is 2.7-3.2. Table VI presents the results from the whole blood studies given as a ΔP50 and Hill coefficient (n50) values for the enantiomers and racemates.
The whole blood samples were collected in heparinized tubes from healthy volunteers and stored over ice. The sodium salts of the compounds were prepared as described earlier. A 200 mM stock solution of the effector was prepared in DMSO. A 5.0 mM test solution was prepared from 50 μL of the 200 mM test solution and 1950 μL of whole blood. The blood samples were incubated in IL 237 tonometers (Instrumentation Laboratories, Inc. Lexington, Mass.) for approximately 10-12 min at 37° C. and equilibrated at three separate concentrations of O2 (20%, 40%, and 60%). After equilibration at each concentration of O2, a sample was removed via syringe and aspirated into a IL 1420 Automated Blood Gas Analyzer (Instrumentation Laboratories, Inc. Lexington, Mass.) and a IL 482 and IL 682 Co-oximeter (Instrumentation Laboratories, Inc. Lexington, Mass.) to determine the pH, pCO2, pO2 and the hemoglobin oxygen saturation values (sO2), respectively. The measured values for pO2 and sO2 at each oxygen saturation level were then subjected to a non-linear regression analysis using the program Scientist (Micromath, Salt Lake City, Utah) to calculate the P50 and Hill coefficient values.

T1 sequence (P69905 2-142 limits assumed): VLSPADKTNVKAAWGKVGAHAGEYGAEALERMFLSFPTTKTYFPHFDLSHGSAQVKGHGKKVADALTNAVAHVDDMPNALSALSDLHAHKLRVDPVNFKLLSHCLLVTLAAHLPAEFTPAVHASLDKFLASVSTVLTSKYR
T1 sequence (P68871 2-147 limits assumed): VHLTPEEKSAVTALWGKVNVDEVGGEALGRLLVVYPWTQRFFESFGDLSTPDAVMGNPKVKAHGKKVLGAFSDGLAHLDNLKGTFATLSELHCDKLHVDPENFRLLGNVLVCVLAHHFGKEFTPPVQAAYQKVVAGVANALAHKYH

Whole Blood Δp50 mm Hg (Table III) | Whole Blood Δp50 mm Hg (Table II) | Compound
11 mm Hg | – | CSCCC(NC(=O)C(C)(C)Oc1ccc(CC(=O)Nc2cc(C)cc(C)c2)cc1)C(=O)O (stereo not drawn) [Compound 34, 2-(2-(4-((3,5-Dimethyl-phenylcarbamoyl)-methyl)-phenoxy)-2-methyl-propionylamino)-4-methylsulfanyl-butyric acid]
12 mm Hg | – | Cc1cc(C)cc(NC(=O)Cc2ccc(OC(C)(C)C(=O)N3CCCC3C(=O)O)cc2)c1 (stereo not drawn) [Compound 35]
18 mm Hg | – | Cc1cc(C)cc(NC(=O)Cc2ccc(OC(C)(C)C(=O)NC(CSCc3ccccc3)C(=O)O)cc2)c1 (stereo not drawn) [Compound 36, 3-Benzylsulfanyl-2-(2-(4-((3,5-Dimethyl)-phenylcarbamoyl)-methyl-phenoxy)-2-methyl-propionylamino)-propionic acid]
30 mm Hg | – | Cc1cc(C)cc(NC(=O)Cc2ccc(OC3(C(=O)N[C@H](C)C(=O)O)CCCC3)cc2)c1 [Compound 38, 1-[4-(((3,5-dimethylanilino)carbonyl)methyl)phenoxy]cyclopentanecarbonyl-D-alanine]
27 mm Hg | – | Cc1cc(C)cc(NC(=O)Cc2ccc(OC3(C(=O)N[C@@H](C(=O)O)C(C)C)CCCC3)cc2)c1 [Compound 42, 1-[4-(((3,5-dimethylanilino)carbonyl)methyl)phenoxy]cyclopentanecarbonyl-D-valine]
20 mm Hg | – | Cc1cc(C)cc(NC(=O)Cc2ccc(OC3(C(=O)N[C@@H](Cc4ccccc4)C(=O)O)CCCC3)cc2)c1 [Compound 45, 1-[4-(((3,5-dimethylanilino)carbonyl)methyl)phenoxy]cyclopentanecarbonyl-L-phenylalanine]
20 mm Hg | – | Cc1cc(C)cc(NC(=O)Cc2ccc(OC3(C(=O)N[C@@H](Cc4c[nH]c5ccccc45)C(=O)O)CCCC3)cc2)c1 [Compound 47, 1-[4-(((3,5-dimethylanilino)carbonyl)methyl)phenoxy]cyclopentanecarbonyl-L-tryptophan]
22 mm Hg | – | Cc1cc(C)cc(NC(=O)Cc2ccc(OC3(C(=O)N[C@@H](CCC(=O)O)C(=O)O)CCCC3)cc2)c1 [Compound 48, 1-[4-(((3,5-dimethylanilino)carbonyl)methyl)phenoxy]cyclopentanecarbonyl-L-glutamate]
21 mm Hg | – | CSCC[C@H](NC(=O)C1(Oc2ccc(CC(=O)Nc3cc(C)cc(C)c3)cc2)CCCC1)C(=O)O [Compound 52, 1-[4-(((3,5-dimethylanilino)carbonyl)methyl)phenoxy]cyclopentanecarbonyl-L-methionine]
27 mm Hg | – | Cc1cc(C)cc(NC(=O)Cc2ccc(OC3(C(=O)N[C@@H](CC(=O)O)C(=O)O)CCCC3)cc2)c1 [Compound 55, 1-[4-(((3,5-dimethylanilino)carbonyl)methyl)phenoxy]cyclopentanecarbonyl-L-aspartate]
7 mm Hg | – | Cc1cc(C)cc(NC(=O)Cc2ccc(OC3(C(=O)N[C@@H](CSCc4ccccc4)C(=O)O)CCCC3)cc2)c1 [Compound 57, 1-[4-(((3,5-dimethylanilino)carbonyl)methyl)phenoxy]cyclopentanecarbonyl S-benzyl-L-cysteine]
0.4 mm Hg | – | Cc1cc(C)cc(NC(=O)Cc2ccc(OC3(C(=O)N[C@@H](CCCCNC(=O)OCc4ccccc4)C(=O)O)CCCC3)cc2)c1 [Compound 59, N^a-1-[4-(((3,5dimethylanilino)carbonyl)methyl)phenoxy]cyclopentane-carbonyl-N^e-benzyloxycarbonyl-L-lysine]
14 mm Hg | – | Cc1cc(C)cc(NC(=O)Cc2ccc(OC3(C(=O)N[C@H](CCCCNC(=O)OCc4ccccc4)C(=O)O)CCCC3)cc2)c1 [Compound 60, N^a-1-[4-(((3,5dimethylanilino)carbonyl)methyl)phenoxy]cyclopentane-carbonyl-N^e-benzyloxycarbonyl-D-lysine]
−0.2 mm Hg | – | Cc1cc(C)cc(NC(=O)Cc2ccc(OC3(C(=O)N[C@H](CCCCN)C(=O)O)CCCC3)cc2)c1 [Compound 61, 1-[4-(((3,5-dimethylanilino)carbonyl)methyl)phenoxy]cyclopentanecarbonyl-D-lysine]
17 mm Hg | – | Cc1cc(C)cc(NC(=O)Cc2ccc(OC(C)(C)C(=O)NCC(=O)O)cc2)c1 [KDD4-24]

Second part, the compound before the results:

Compound | Whole Blood Δp50 mm Hg (Table III) | Whole Blood Δp50 mm Hg (Table II)
1-[4-(((3,5-dimethylanilino)carbonyl)methyl) phenoxy]cyclopentane carbonyl glycine [Compound 37] | 25 mm Hg | –
Cc1cc(C)cc(NC(=O)C(O)c2ccc(OC(C)(C)C(=O)O)cc2)c1 (stereo not drawn) [Compound 12, 2-{4-[(3,5-Dimethyl-phenylcarbamoyl)-hydroxy-methyl]-phenoxy}-2-methyl-propionic acid] | – | 21 mm Hg
CCOC(C(=O)Nc1cc(C)cc(C)c1)c1ccc(OC(C)(C)C(=O)O)cc1 (stereo not drawn) [Compound 13, 2-{4-[(3,5-Dimethyl-phenylcarbamoyl)-ethoxy-methyl]-phenoxy}-2-methyl-propionic acid] | – | 4 mm Hg
Cc1cc(C)cc(NC(=O)Cc2ccc(OC(C(=O)O)c3ccccc3)cc2)c1 (stereo not drawn) [Compound 14] | – | 15 mm Hg
Cc1cc(C)cc(NC(=O)Cc2ccc(OC(C)(C(=O)O)c3ccccc3)cc2)c1 (stereo not drawn) [Compound 15] | – | 12 mm Hg
CCC(Oc1ccc(CC(=O)Nc2cc(C)cc(C)c2)cc1)(C(=O)O)c1ccccc1 (stereo not drawn) [Compound 16] | – | 12 mm Hg
Cc1cc(C)cc(NC(=O)C2(C)CCc3cc(OC(C)(C)C(=O)O)c(C)c(C)c3O2)c1 (stereo not drawn) [Compound 17] | – | 1 mm Hg
Cc1cc(C)cc(NC(=O)Cc2ccc(OC(C)(C)C(=O)NC(C)C(=O)O)cc2)c1 (stereo not drawn) [Compound 22] | 17 mm Hg | –
Cc1cc(C)cc(NC(=O)Cc2ccc(OC(C)(C)C(=O)NC(C)C(=O)O)cc2)c1 (stereo not drawn) [Compound 23] | 22 mm Hg | –
Cc1cc(C)cc(NC(=O)Cc2ccc(OC(C)(C)C(=O)NC(C(=O)O)C(C)C)cc2)c1 (stereo not drawn) [Compound 24] | 22 mm Hg | –
Cc1cc(C)cc(NC(=O)Cc2ccc(OC(C)(C)C(=O)NC(C(=O)O)C(C)C)cc2)c1 (stereo not drawn) [Compound 25] | 20 mm Hg | –
Cc1cc(C)cc(NC(=O)Cc2ccc(OC(C)(C)C(=O)NC(C(=O)O)C(C)C)cc2)c1 (stereo not drawn) [Compound 26] | 20 mm Hg | –
Cc1cc(C)cc(NC(=O)Cc2ccc(OC(C)(C)C(=O)NC(Cc3ccccc3)C(=O)O)cc2)c1 (stereo not drawn) [Compound 27] | 10 mm Hg | –
Cc1cc(C)cc(NC(=O)Cc2ccc(OC(C)(C)C(=O)NC(Cc3ccccc3)C(=O)O)cc2)c1 (stereo not drawn) [Compound 28] | 20 mm Hg | –
COC(=O)C(CCC(=O)O)NC(=O)C(C)(C)Oc1ccc(CC(=O)Nc2cc(C)cc(C)c2)cc1 (stereo not drawn) [Compound 30] | 26 mm Hg | –
COC(=O)C(CC(=O)O)NC(=O)C(C)(C)Oc1ccc(CC(=O)Nc2cc(C)cc(C)c2)cc1 (stereo not drawn) [Compound 31] | 21 mm Hg | –
Cc1cc(C)cc(NC(=O)Cc2ccc(OC(C)(C)C(=O)NC(Cc3c[nH]c4ccccc34)C(=O)O)cc2)c1 (stereo not drawn) [Compound 32] | 11 mm Hg | –
CSCCC(NC(=O)C(C)(C)Oc1ccc(CC(=O)Nc2cc(C)cc(C)c2)cc1)C(=O)O (stereo not drawn) [Compound 33, 2-(2-(4-((3,5-Dimethyl-phenylcarbamoyl)-methyl)-phenoxy)-2-methyl-propionylamino)-4-methylsulfanyl-butyric acid] | 16 mm Hg | –
